Test results taken from patent US11077184B2 (priority 2011, dated 2021).
“Also recorded” adds a separate entry of the source.

Assays:
[1] = system: Purified B cells from C57BL6 mice; type: cell-based
murine DCs = conditions: cited from earlier work

Row | Substance | proliferation of B cells ([3H]-thymidine incorporation, CPM) [1] | pro-inflammatory cytokines IL-12p40, IL-6 and TNFα produced (murine DCs)
1 | tripalmitoyl-S-glyceryl-cysteine [Pam3Cys] | can induce potent proliferation of B cells; also recorded: capable of inducing potent proliferation of B cells | high levels
2 | Poly I:C | does not | 
